According to patent US10975087B2, “Solid forms of tetrahydropyranyl amino-pyrrolopyrimidinone compounds” (ArQule, Inc., priority 2018, dated 2021):
Values after ≈ are worked out from the molar mass of the structure shown.

Experiments:
Type in all cases: physicochemical
[1] = Gravimetric vapor sorption (GVS)
Protocol: Approximately 10-20 mg of sample was placed into a mesh vapor sorption balance pan and loaded into an IGASorp Moisture Sorption Analyzer balance by Hiden Analytical. The sample was subjected to a ramping profile from 40-90% relative humidity (RH) at 10% increments, maintaining the sample at each step until a stable weight had been achieved (98% step completion). After completion of the sorption cycle, the sample was dried using the same procedure to 0% RH, and finally taken back to the starting point of 40% RH. Two cycles were performed. The weight change during the sorption/desorption cycles were plotted, allowing for the hygroscopic nature of the sample to be determined.

[2] = 7 day stability testing, open vials at 40° C./75% RH, ambient and 80° C.
[3] = Long term stability testing at 25° C./60% RH
Protocol: Long term stability testing was carried out for Form 1 at 25° C./60% RH. […] The water content was measured by KF analysis.

[4] = Accelerated stability testing at 40° C./75% RH for 6 months
Protocol: Accelerated stability testing was carried out for Form 1 at 40° C./75% RH for 6 months. […] The water content was measured by KF analysis.

Aqueous solubility = assay: Aqueous solubility
Protocol: (§1) Aqueous and acetone solubility was carried out using 3-10 mg of material, depending on availability, and slurrying in 150-200 μL of acetone or 300 μL of deionized water. The samples were agitated at ambient temperature then filtered by centrifugation (0.22 μm nylon filter) after ca. 24 hours and the solids analyzed by XRPD as damp solids. The filtrates were analyzed by HPLC for concentration determination. The water solubility was too low for detection using the current analytical method.

Acetone solubility = assay: Acetone solubility
Protocol: as §1

Competitive slurrying = conditions: under the conditions assessed
Protocol: Approximately 5 mg of each form (Form 1 and Form 4, Form 1 and Form 8, and Form 4 and Form 8) was weighed and agitated at ambient and 50° C. in minimal acetone, ethanol, diisopropyl ether (DIPE) and acetonitrile. Approximately 8 drops of each solvent was added and the samples were then agitated for ca. 48 hours, before being analyzed by XRPD. Table 9 details the conditions.

[5] = acetone, ambient temperature, ca. 24 hours

With `O=C(c1ccc(Oc2ccccc2)cc1Cl)c1c[nH]c2ncnc(N[C@@H]3CC[C@@H](CO)OC3)c12` [Form 1, (2-chloro-4-phenoxyphenyl)(4-(((3R,6S)-6-(hydroxymethyl)tetrahydro-2H-pyran-3-yl)amino)-7H-pyrrolo[2,3-d]pyrimidin-5-yl)methanone] the “hygroscopic nature by GVS” value [1] was “non-hygroscopic”, the “Post-GVS analysis (form)” value ([1]; after exposure to elevated humidity) was “remain Form 1” and the “uptake by GVS” value ([1]; at 90% RH) was less than 0.2%. The “XRPD post GVS” value ([1]; cell wraps: Remained | unchanged) was “Remained”, the “GVS (hygroscopicity)” value ([1]; summary Table 11) was less than 0.2% uptake and the “Purity after 1 week (%)” value ([2]; 40° C./75% RH, open vials, 1 week) was 99.4%. The “Purity after 1 week (%)” value ([2]; 80° C., open vials, 1 week) was 99.4%, the “Purity after 1 week (%)” value ([2]; Ambient, open vials, 1 week) was 99.3% and the “T = 0 purity (%)” value ([2]; T = 0, before storage) was 99.3%. The “area % purity and form changes after 1 week” value ([2]; ambient, 40° C./75% RH and 80° C., open vials, 1 week) was “no decrease in area % purity or form changes”, the Stability testing ([2]; cell wraps: No drop in purity or change in form) was “No drop in purity” and the “area % purity and form changes, long term storage” value [3] was “no decrease in area % purity or form changes”. For the same compound, the “Chemical Purity (% AUC)” value ([3]; 0 months) was 98.9 % AUC, the “Crystallinity (XRPD)” value ([3]; 0 months) was “Form 1” and the “Water Content (KF) (%)” value ([3]; 0 months) was 0.16%. The “Chemical Purity (% AUC)” value ([3]; 1 month) was 98.8 % AUC, the “Water Content (KF) (%)” value ([3]; 1 month) was 0.28% and the “Chemical Purity (% AUC)” value ([3]; 3 months) was 98.8 % AUC. The “Water Content (KF) (%)” value ([3]; 3 months) was 0.41%, the “Chemical Purity (% AUC)” value ([3]; 6 months) was 98.9 % AUC and the “Crystallinity (XRPD)” value ([3]; 6 months) was “Form 1”. For the same compound, the “Water Content (KF) (%)” value ([3]; 6 months) was 0.47%, the “Chemical Purity (% AUC)” value ([3]; 9 months) was 98.9 % AUC and the “Water Content (KF) (%)” value ([3]; 9 months) was 0.29%. The “Chemical Purity (% AUC)” value ([3]; 12 months) was 98.8 % AUC, the “Crystallinity (XRPD)” value ([3]; 12 months) was “Form 1” and the “Water Content (KF) (%)” value ([3]; 12 months) was 0.46%. For the same compound, the “Chemical Purity (% AUC)” value ([3]; 18 months) was 99.0 % AUC, the “Water Content (KF) (%)” value ([3]; 18 months) was 0.49% and the “Chemical Purity (% AUC)” value ([3]; 24 months) was 98.9 % AUC. For the same compound, the “Crystallinity (XRPD)” value ([3]; 24 months) was “Form 1”, the “Water Content (KF) (%)” value ([3]; 24 months) was 0.37% and the “Chemical Purity (% Area)” value ([4]; 0 months) was 98.9 % Area. For the same compound, the “Crystallinity (XRPD)” value ([4]; 0 months) was “Form 1”, the “Water Content (KF) (%)” value ([4]; 0 months) was 0.16% and the “Chemical Purity (% Area)” value ([4]; 1 month) was 98.8 % Area. The “Water Content (KF) (%)” value ([4]; 1 month) was 0.36%, the “Chemical Purity (% Area)” value ([4]; 3 months) was 98.8 % Area and the “Water Content (KF) (%)” value ([4]; 3 months) was 0.53%. The “Chemical Purity (% Area)” value ([4]; 6 months) was 98.9 % Area, the “Crystallinity (XRPD)” value ([4]; 6 months) was “Form 1” and the “Water Content (KF) (%)” value ([4]; 6 months) was 0.57%. The “area % purity and form changes, accelerated storage” value ([4]; 6 months) was “no decrease in area % purity or form changes”, the “Solubility (mg/mL)” value (Aqueous solubility; Water, ambient temperature, ca. 24 hours) was “API not detected” and the Form (Aqueous solubility; XRPD of damp solid after slurrying in Water, AXRPD: Amorphous by XRPD, but limited material for analysis) was “Form 1”. The “XRPD post aqueous solubility” value (Aqueous solubility; amorphous: Form 1 from solubility screen, Form 8: Amorphous, limited material) was “Form 1”, the aqueous solubility (Aqueous solubility; deionized water, ambient temperature, ca. 24 hours) was “not soluble” and the aqueous solubility (Aqueous solubility; summary Table 11, HPLC of filtrate) was “API not detected”. The Form (Acetone solubility; XRPD of damp solid after slurrying in Acetone, *Small amount of material analyzed) was “Form 2*”, the “Solubility” value (Acetone solubility; [5]) was 12.3 mg/mL (≈ 25.7 mM) and the “solid form after slurrying in acetone (XRPD)” value (Acetone solubility; [5]) was “conversion to Form 2”. For the same compound, the solubility at 24 h (Acetone solubility; acetone, organic solvent or mixture, thermodynamic from solid, summary Table 11, read-out: Acetone solubility) was 12.3 mg/mL (≈ 25.7 mM), the “Acetone solubility: residual solid” value (Acetone solubility; form of residual solid, amorphous input: Form 2 residual solid with additional peaks) was “(Form 2 residual” and the “relative stability of the form” value (Competitive slurrying) was “thermodynamically more stable form”.
